From patent US8003345B2, “Antioxidant pharmaceutical compound, method for producing polypeptide and method of cure” (Institute of Cell Biophysics Russian Academy of Sciences, priority 2002, dated 2011)

Columns and labels:
glutamine synthetase = test: Comparative characteristics of peroxiredoxin activators (glutamine synthetase protection against metal-catalyzed oxidative system); type: biochemical; conditions: 50 μg peroxiredoxin VI, FIG. 11
Description: The antioxidant activity was determined from the degree of glutamine synthetase protection against metal-catalyzed oxidative system. The antioxidant effectiveness of thiols was determined in molar concentration, at which 50% protection of glutamine synthetase took place.
For determining the effectiveness of peroxiredoxin activation with dithiothreitol or with dihydrolipoic acid (natural activator), use is made of the ability of peroxiredoxin to protect glutamine synthetase from inactivation caused by the metal-catalyzed oxidative system.
The degree of the peroxiredoxin activity was determined from the protein concentration value, at which 50% preservation of the glutamine synthetase activity was observed.

[1] = system: tracheal epithelium of rat after application of lipopolysaccharide; test: Inflammation of rat tracheal epithelium caused by lipopolysaccharide (LPS); type: in vivo
Description: The therapeutic properties of peroxiredoxin Prx VI in treating the upper respiratory tract of rat immediately after the application of LPS were checked on a group of 4 Wistar line rats weighing 150-200 grams. The application of LPS was carried out in the following manner. The rats were anesthetized with hexenal, and 100 μl of a lipopolysaccharide solution were introduced through a catheter (the lipopolysaccharide concentration was from 10^−9 to 10^−11 mg/ml, the total number of the used animals was 20). After the application of the lipopolysaccharide, the rats were maintained for a definite period of time (1 hour, 3 hours, 6 hours, 7 hours, 9 hours), then narcotized with hexenal (300 mg/kg weight), and a sample of the tracheal epithelial tissue was isolated. For histochemical investigations the isolated sample was placed into a fixing solution containing 2% of formaldehyde and 0.5% of glutaraldehyde. The tissue was dehydrated by sequential routing through ethyl alcohol with increasing concentration (40-100%). The tissue was embedded into LR white resin. The resin was polymerized at room temperature. 0.5 em-thick sections were made on an LKB ultratome (Sweden), using glass knives. The sections were stained with a hematoxylin-eosine and analyzed under a light microscope.
For biochemical investigations we scraped the epithelium with a thin spatula, washed off the scrape with physiological solution and centrifugated at 10000 g for 15 min. The concentration of hydrogen peroxide was by the luminescence method. […] After LPS, application of a solution of a composition based on peroxiredoxin Prx VI into the trachea was carried out. Preliminarily the rats were narcotized by intraperitoneal administration of hexenal (70 mg/kg), the animals were fixed on an operating table, and under visual control with the aid of a binocular lens, through a catheter of 1 mm in diameter, peroxiredoxin solution (20 to 100 μl) was introduced into the trachea. The peroxiredoxin concentration was from 0.5 to 5.0 mg/ml. A 0.9% solution of NaCl was used as the solvent. The application of the solution of the composition was carried out once, immediately after the application of LPS. The application of pure solvent, solutions of serum albumin (10 mg/ml) and of glutathione (10 mM) were used as control.
Histological investigation of the trachea was carried out 24 hrs after the LPS application.

[2] = system: tracheal epithelium of rat after application of lipopolysaccharide; test: as above; type: in vivo; remark: listed apart in the source
skin cuts of rats = test: Treating skin wounds (cuts) in rats; type: in vivo, rat; conditions: in 5 days; 0.5 mg/ml in 0.15 M NaCl, bandages changed once a day; against control; FIG. 10
Description: Rats were preliminarily narcotized by intraperitoneal introduction of hexenal (70 mg/kg). The animals were fixed on an operating table, and then 2-3 mm deep and 1 cm long cuts were made in the skin of both paws with the help of a razor blade. Control cuts were irrigated with physiological solution and a bactericidal plaster was applied; in the case of using peroxiredoxin, the wound was irrigated with a solution of recombinant Prx Vlhum or of its fragment ΔPrx Vlhum in 0.15 M NaCl in 0.5 mg/ml concentration, and a gauze bandage soaked with the same solutions was applied. The bandages were changed once a day.

[3] = system: glutamine synthetase of E.coli; conditions: DTT/Fe3+/O2 oxidative system, 3 mM activator, 10 min at 37° C.; FIG. 3
Description: Comparison of the protector properties of recombinant full-size Prx Vlhum with the protector properties of natural rat Prx VIrat and with the protector properties of N-terminal ΔPrx V1hum in terms of protecting glutamine synthetase of E.coli from inactivation in a model oxidative system in vitro.
For determining the activity of different types of peroxiredoxins, their ability to protect glutamine synthetase from the DTT/Fe^+3/O2 oxidative system is measured. Glutamine synthetase is isolated from cells of the E.coli DH5α strain (Streicher S. L., Tyler B., 1980) and inactivated in the presence of a Fe^3+/O2 oxidative system and a peroxiredoxin activator—in the model oxidative system generating free radicals (Kim K. et al., 1988). […] The residual activity of glutamine synthetase is assessed by adding to the sample 200 μl of a reaction mixture which comprises: ADP, 0.4 mM; glutamine, 150 mM; K—AsO4, 10 mM; NH2OH, 20 mM; MnCl2, 0.4 mM; HEPES, 100 mM, pH 7.4. […] The protector properties of peroxiredoxin for protecting glutamine synthetase of E.coli from inactivation are determined as the ratio of the remaining activity of the enzyme after the inactivation in the presence of different concentrations of peroxiredoxin to the activity of non-inactivated glutamine synthetase.

[4] = Cytotoxicity: number of live line L929 cells; type: cell-based, human; conditions: 0.1-10 μg/ml concentration; Trypan stain
Description: (§1) The cytotoxicity is determined from the influence of recombinant Prx V1hum or of natural rat Prx V1rat on the level of proliferation of line L929 human lymphoblastoma cells and of T-lymphocytes from the spleen of line NRRI rats stimulated with concavalin A.
(§2) Cells of two lines with the concentration of 10^4 cells/ml medium were cultivated in RPMI 1640 containing 5% of bovine fetal serum. The stimulation of T-lymphocytes was carried out with the 0.1 μg/ml concentration of concavalin. In the case of T-lymphocytes the proliferation level was determined from the inclusion of ^3H-thymidine. The number of live line L929 cells was determined in a 96-cell plate with the aid of a Trypan stain, followed by scanning on a Multiscan multichannel photometer (LKB, Sweden).

[5] = system: T-lymphocytes from the spleen of line NRRI rats stimulated with concavalin A; test: Proliferation of concanavalin A-stimulated T-lymphocytes (3H-thymidine inclusion); type: cell-based; conditions: 0.1-1.0 mg/ml concentration, against cells stimulated only with concavalin A
Description: as §1, §2

O=C(O)CCCC[C@@H](S)CCS (racemic) [dihydrolipoic acid]
antioxidant effectiveness of thiols (degree of glutamine synthetase protection) (glutamine synthetase): almost equal to dithiothreitol and substantially surpasses the effectiveness of lipoic acid

N[C@@H](CCC(=O)N[C@@H](CS)C(=O)NCC(=O)O)C(=O)O [Glutathione, glutathione, reference compound]
Integrity of tracheal epithelium (according to histological data) ([1]; Time after the action of LPS: 1 hour): 30% | Integrity of tracheal epithelium (according to histological data) ([1]; Time after the action of LPS: 3 hours): 20% | Integrity of tracheal epithelium (according to histological data) ([1]; Time after the action of LPS: 6 hours): 10% | Integrity of tracheal epithelium (according to histological data) ([2]; Treatment 24 hours later for 5 days and the integrity of epithelium 2 weeks later): 20% | effect on tracheal epithelium after LPS (in words) ([2]; other antioxidants, see Table 2): no significant effect

B1: ΔPrx VIhum: N-terminal fragment of human peroxiredoxin Prx VI (SEQ ID NO: 2), length 177 a.b., molecular mass 19691.61 Da (protein, listed as Homo sapiens)
chain: MPGGLLLGDVAPNFEANTTVGRIRFHDFLGDSWGILFSHPRDFTPVCTTELGRAAKLAPEFAKRNVKLIALSIDSVEDHLAWSKDINAYNCEEPTEKLPFPIIDDRNRELAILLGMLDPAEKDEKGMPVTARVVFVFGPDKKLKLSILYPATTGRNFDEILRVVISLQLTAEKRVATPVDWKDGDSVMVLPTIPEEEAKKLFPKGVFTKELPSGKKYLRYTPQP
healing of the wound (skin cuts of rats): almost complete healing of the wound | protector properties: antioxidant characteristics in protecting glutamine synthetase from inactivation [3]: close to the recombinant full-size Prx Vlhum

B2: Prx VIrat: natural peroxiredoxin isolated from the olfactory epithelium of a Wistar line rat, 223 amino acids (protein, UniProt O35244 2-224, looked up)
Peroxiredoxin-6: PGGLLLGDEAPNFEANTTIGHIRFHDFLGDSWGILFSHPRDFTPVCTTELGRAAKLAPEFAKRNVKLIALSIDSVEDHFAWSKDINAYNGAAPTEKLPFPIIDDKDRDLAILLGMLDPAEKDEKGMPVTARVVFIFGPDKKLKLSILYPATTGRNFDEILRVVDSLQLTASNPVATPVDWKKGESVMVLPTLPEEEAKQLFPKGVFTKELPSGKKYLRYTPQP
effect on the number of live line L929 cells [4]: did not produce any effect | cell proliferation level of T-lymphocytes stimulated with concavalin A [5]: increased approximately twofold
